From ChEMBL document CHEMBL3507680, “University of Dundee, Gates Library screen for HepG2 cell viability”

Test: Human HepG2 cell viability assay in 384 well format
Assay type: toxicity, cell-based
Design: dose 125 nL, time 70.5 hour; cytotoxicity at 70.5 h: concentration not given beside the values
Details: HepG2 cells, read-out: Inhibition

| SMILES | cytotoxicity at 70.5 h |
| --- | --- |
| CN1CCN(CCCNC(=O)C2CCCCC2)CC1 | 12.1% |
| O=C(Nc1ccc(F)cc1)C1CCN(Cc2noc(C3CC3)n2)CC1 | -7.96% |
| CCNC(=O)CCS(=O)(=O)Cc1ccn(-c2cccc(F)c2)n1 | 2.48% |
| N#Cc1ccc(C(=O)N(C2CC2)C2CC(=O)NC2=O)cc1 (stereo unspecified) | -8.96% |
| CCOC(=O)c1ccc(NC(=O)c2cc3c([nH]c2=O)CCCC3)cc1 | -14.4% |
| O=C1CC(N(C(=O)c2ccccc2Br)C2CC2)C(=O)N1 (stereo unspecified) | 2.23% |
| CC1CCN(C)c2ccccc2N1C(=O)c1ccnc(-n2cncn2)c1 (stereo unspecified) | 2.2% |
| CC(=O)c1c(C)cc(C)c(Cn2ccnc2S(C)(=O)=O)c1C | 6.42% |
| O=C(c1ccc(-n2cncn2)cc1)N1CCN(c2cnccn2)CC1 | -9.5% |
| Cc1cnn(Cc2ccc(NC(=O)N[C@@H]3C=C[C@H](CO)C3)cc2)c1 | -15.1% |
| CCCN1CCCN(c2ccc(-n3ccc(C)n3)nn2)CC1 | -7.57% |
| Cc1ccn(-c2ccc(N3CCCN(Cc4ccccc4)CC3)nn2)n1 | 2.19% |
| CC1CN(C(=O)c2ccnc(-n3cncn3)c2)c2ccccc2S1 (stereo unspecified) | -0.177% |
| Cn1ncc(C(=O)OCC2CC(=O)N(c3ccccc3)C2)c1C(F)F (stereo unspecified) | -9.29% |
| CC(O)CC(C)(C)CNC(=O)Nc1cnn(-c2ccccc2F)c1 (stereo unspecified) | -4.35% |
| Cc1cccc2ncnc(N3CCOC(C)C3)c12 (stereo unspecified) | 2.61% |
| Cc1c(C(=O)OCC2CC(=O)N(c3ccccc3)C2)cnn1C(C)C (stereo unspecified) | -0.00833% |
| Cn1cc(C2(C)CN(Cc3ccc(O)c(Cl)c3)CCO2)cn1 (stereo unspecified) | -6.24% |
| Cn1cc(C2(C)CN(Cc3ccc(Cl)c(F)c3)CCO2)cn1 (stereo unspecified) | -7.47% |
| O=C(NCC1CC(=O)N(CCc2ccccc2)C1)c1ccc[nH]1 (stereo unspecified) | -8.75% |
| Cc1cc(CN(C)C(=O)NCc2ccccn2)no1 | -1.24% |
| Cc1cc(CN(C)C(=O)NCc2ccnc(OC3CCCC3)c2)no1 | -3.22% |
| O=C(NCCNc1ncccn1)N1CC=C(c2ccccc2)CC1 | -4.56% |

| SMILES | cytotoxicity at 70.5 h |
| --- | --- |
| O=C(NCCNc1cnccn1)N1CCc2ccccc2C1 | -13.1% |
| COc1c(C)cnc(CNC(=O)c2cc(C)nc3onc(C)c23)c1C | -5.39% |
| O=C(NCc1ccccc1CO)Nc1ccc2c(c1)CCO2 | 7.29% |
| COc1c(CNCc2ccc(Cn3cccn3)cc2)c(C)nn1C | 3.44% |
| O=C(NCCNc1cnccn1)N1CC=C(c2ccc(O)cc2)CC1 | 2.47% |
| N#Cc1ccccc1N1CCN(CCC(=O)N2CCOCC2)CC1 | -3.68% |
| N#Cc1ccccc1N1CCN(C(=O)NCC(=O)N2CCCC2)CC1 | -0.138% |
| COC(=O)c1cc(NS(=O)(=O)c2cn(C)cn2)c(F)cc1F | -2.67% |
| O=C(CCCc1ccccn1)N1CCC(Nc2cccnn2)CC1 | -0.523% |
| CN(Cc1ccc(Cl)cc1)S(=O)(=O)N(C)Cc1cnn(C)c1 | -1.12% |
| Cc1ccnc(N2CCCC(c3noc(C(C)C)n3)C2)n1 (stereo unspecified) | 6.3% |
| CC(C)c1nc(C2CCCN(c3nccc(N4CCCC4)n3)C2)no1 (stereo unspecified) | -2.95% |
| CCc1ccc(C(=O)N2CCCC2c2nnc3n2CCCCC3)o1 (stereo unspecified) | 3.58% |
| CC(C)c1nnc2n1CC(CNCc1cccnc1)CC2 (stereo unspecified) | -6.45% |
| Cc1ncsc1CCN1CCC(N(C)Cc2noc(C(C)C)n2)C1 (stereo unspecified) | 6.17% |
| COCc1csc(NC(=O)NCc2ccccn2)n1 | 5.11% |
| Cc1c(NCC(C)(C)C)cccc1C(=O)N(C)Cc1ncnn1C | 21% |
| Cc1cc(NC(=O)CNC(C)(C)c2ccccc2)on1 | 17.8% |
| O=C(CN1CCN(c2ccnc3c(F)ccc(F)c23)CC1)N1CCCC1 | 8.2% |
| O=C(c1cccnc1OCC(F)(F)F)N1CCCn2ncnc21 | 14.8% |
| O=C(c1ccc(-c2ccccc2)[nH]c1=O)N1CCCn2ncnc21 | -9.78% |
| CC(C)COCCC(=O)Nc1c(-c2ccc(F)cc2)ncn1C | -2.98% |
| Cc1ncc2c(n1)CN(CC(O)COc1ccc(C#N)cc1)CC2 (stereo unspecified) | -3.74% |
